Several values for one entry are separate records, joined by “and”; a condition that tells them apart may be missing. Identical values can stand only once.
Key:
Test in all cases: cell-based
[1] = target: CfEcR-DEF mutant A110W (Choristoneura fumiferana, UniProt O77255, A393W); conditions: for Emax: NIH3T3, 40 h, read-out: Rel Max FI
In short: (§1)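 Mouse NIH3T3 cells were treated with ligand in DMSO, then transfected with GAL4 luciferase reporter (0.16 μg/well) plus mutant CfEcR-DEF receptor constructs (0.04 μg each/well). Cells were kept at 37° C in 5% FBS and lysed 40 hours after ligand addition for dual-luciferase measurement. Fold induction = ligand RLU ÷ DMSO RLU.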

[2] = target: CfEcR-DEF mutant W238P (Choristoneura fumiferana, UniProt O77255, W521P); conditions: for Emax: NIH3T3, 40 h, read-out: Rel Max FI
CfEcR-DEF mutant W238P, sequence (P28702 299-449): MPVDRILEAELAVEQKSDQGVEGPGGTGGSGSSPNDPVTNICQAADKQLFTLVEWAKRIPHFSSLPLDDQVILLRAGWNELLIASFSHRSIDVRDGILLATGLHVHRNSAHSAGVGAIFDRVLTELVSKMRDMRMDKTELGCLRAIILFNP
CfEcR-DEF mutant W238P, sequence (O77255 entry or part of it W521P): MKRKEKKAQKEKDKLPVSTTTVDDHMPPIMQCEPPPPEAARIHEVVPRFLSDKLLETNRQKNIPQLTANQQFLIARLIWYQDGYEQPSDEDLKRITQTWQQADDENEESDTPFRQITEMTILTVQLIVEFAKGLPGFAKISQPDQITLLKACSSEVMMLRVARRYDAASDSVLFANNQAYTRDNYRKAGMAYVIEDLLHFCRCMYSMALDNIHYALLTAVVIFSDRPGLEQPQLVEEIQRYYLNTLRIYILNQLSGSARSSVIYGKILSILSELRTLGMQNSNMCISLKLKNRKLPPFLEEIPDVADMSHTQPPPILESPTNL
In short: as §1

[3] = target: CfEcR-DEF mutant L132V (Choristoneura fumiferana, UniProt O77255, L415V); conditions: for Emax: NIH3T3, 40 h, read-out: Rel Max FI
CfEcR-DEF mutant L132V, sequence (O77255 entry or part of it L415V): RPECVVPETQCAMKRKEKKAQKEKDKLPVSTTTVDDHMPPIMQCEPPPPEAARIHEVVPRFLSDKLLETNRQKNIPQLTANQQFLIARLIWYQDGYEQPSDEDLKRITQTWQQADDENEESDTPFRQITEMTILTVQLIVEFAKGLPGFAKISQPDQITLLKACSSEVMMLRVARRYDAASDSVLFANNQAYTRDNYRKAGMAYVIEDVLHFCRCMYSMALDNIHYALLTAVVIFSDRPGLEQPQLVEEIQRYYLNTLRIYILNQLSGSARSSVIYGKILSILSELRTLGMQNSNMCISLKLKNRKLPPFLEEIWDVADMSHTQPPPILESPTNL
CfEcR-DEF mutant L132V, sequence (P28702 298-449, further chain): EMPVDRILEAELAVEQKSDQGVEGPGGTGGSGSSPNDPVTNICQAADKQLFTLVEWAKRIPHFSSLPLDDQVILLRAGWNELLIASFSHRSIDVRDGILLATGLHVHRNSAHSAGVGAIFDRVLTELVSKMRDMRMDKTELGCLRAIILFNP
In short: as §1

[4] = target: CfEcR-DEF mutant W238Y (Choristoneura fumiferana, UniProt O77255, W521Y); conditions: for Emax: NIH3T3, 40 h, read-out: Rel Max FI
CfEcR-DEF mutant W238Y, sequence (P28702 299-449): as the sequence (P28702 299-449) above
CfEcR-DEF mutant W238Y, sequence (O77255 entry or part of it W521Y): as the sequence (O77255 entry or part of it W521P) above, with P303Y counted along it
In short: as §1

[5] = target: CfEcR-DEF mutant A110P (Choristoneura fumiferana, UniProt O77255, A393P); conditions: for Emax: NIH3T3, 40 h, read-out: Rel Max FI
CfEcR-DEF mutant A110P, sequence (O77255 entry or part of it A393P): as the sequence (O77255 entry or part of it L415V) above, with A187P, V209L counted along it
CfEcR-DEF mutant A110P, sequence (P28702 299-449, stated change not applied, further chain): as the sequence (P28702 299-449) above
In short: as §1

[6] = target: CfEcR-DEF mutant T52L (Choristoneura fumiferana, UniProt O77255, T335L); conditions: for Emax: NIH3T3, 40 h, read-out: Rel Max FI
In short: as §1

[7] = target: CfEcR-DEF mutant F109L (Choristoneura fumiferana, UniProt O77255, F392L); conditions: for Emax: NIH3T3, 40 h, read-out: Rel Max FI
In short: as §1

[8] = target: CfEcR-DEF mutant M125L (Choristoneura fumiferana, UniProt O77255, M408L); conditions: for Emax: NIH3T3, 40 h, read-out: Rel Max FI
CfEcR-DEF mutant M125L, sequence (P28702 299-449): as above
CfEcR-DEF mutant M125L, sequence (O77255 entry or part of it M408L): as the sequence (O77255 entry or part of it W521P) above, with M190L, P303W counted along it
In short: as §1

[9] = target: CfEcR-DEF mutant T52E (Choristoneura fumiferana, UniProt O77255, T335E); conditions: for Emax: NIH3T3, 40 h, read-out: Rel Max FI
In short: as §1

[10] = target: CfEcR-DEF mutant I51L (Choristoneura fumiferana, UniProt O77255, I334L); conditions: for Emax: NIH3T3, 40 h, read-out: Rel Max FI
In short: as §1

[11] = target: CfEcR-DEF mutant M125R (Choristoneura fumiferana, UniProt O77255, M408R); conditions: for Emax: NIH3T3, 40 h, read-out: Rel Max FI
CfEcR-DEF mutant M125R, sequence (P28702 299-449): as the sequence (P28702 299-449) above
CfEcR-DEF mutant M125R, sequence (O77255 entry or part of it M408R): as the sequence (O77255 entry or part of it W521P) above, with M190R, P303W counted along it
In short: as §1

[12] = target: CfEcR-DEF mutant M54T (Choristoneura fumiferana, UniProt O77255, M337T); conditions: for Emax: NIH3T3, 40 h, read-out: Rel Max FI
In short: as §1

[13] = target: CfEcR-DEF mutant A110E (Choristoneura fumiferana, UniProt O77255, A393E); conditions: for Emax: NIH3T3, 40 h, read-out: Rel Max FI
CfEcR-DEF mutant A110E, sequence (P28702 299-449, stated change not applied): as the sequence (P28702 299-449) above
CfEcR-DEF mutant A110E, sequence (O77255 entry or part of it A393E): as the sequence (O77255 entry or part of it L415V) above, with A187E, V209L counted along it
In short: as §1

[14] = target: CfEcR-DEF mutant R95H (Choristoneura fumiferana, UniProt O77255, R378H); conditions: for Emax: NIH3T3, 40 h, read-out: Rel Max FI
CfEcR-DEF mutant R95H, sequence (P28702 299-449): as the sequence (P28702 299-449) above
CfEcR-DEF mutant R95H, sequence (O77255 entry or part of it R378H): as the sequence (O77255 entry or part of it W521P) above, with R160H, P303W counted along it
In short: as §1

[15] = target: CfEcR-DEF mutant L234M (Choristoneura fumiferana, UniProt O77255, L517M); conditions: for Emax: NIH3T3, 40 h, read-out: Rel Max FI
In short: as §1

[16] = target: CfEcR-DEF mutant M125P (Choristoneura fumiferana, UniProt O77255, M408P); conditions: for Emax: NIH3T3, 40 h, read-out: Rel Max FI
In short: as §1

[17] = target: CfEcR-DEF mutant F48L (Choristoneura fumiferana, UniProt O77255, F331L); conditions: for Emax: NIH3T3, 40 h, read-out: Rel Max FI
CfEcR-DEF mutant F48L, sequence (P28702 299-449): as the sequence (P28702 299-449) above
CfEcR-DEF mutant F48L, sequence (O77255 entry or part of it F331L): as the sequence (O77255 entry or part of it W521P) above, with F113L, P303W counted along it
In short: as §1

[18] = target: CfEcR-DEF mutant Y120W (Choristoneura fumiferana, UniProt O77255, Y403W); conditions: for Emax: NIH3T3, 40 h, read-out: Rel Max FI
In short: as §1

[19] = target: CfEcR-DEF mutant M125E (Choristoneura fumiferana, UniProt O77255, M408E); conditions: for Emax: NIH3T3, 40 h, read-out: Rel Max FI
In short: as §1

[20] = target: CfEcR-DEF mutant M125C (Choristoneura fumiferana, UniProt O77255, M408C); conditions: for EC50: EC50, mutant M125C; for Emax: NIH3T3, 40 h, read-out: Rel Max FI
In short: as §1

[21] = target: CfEcR-DEF mutant M54W (Choristoneura fumiferana, UniProt O77255, M337W); conditions: for Emax: NIH3T3, 40 h, read-out: Rel Max FI
In short: as §1

[22] = NIH3T3, mouse, 40 h, read-out: GS-E ligand max FI (relative to DMSO)

How did the EC50 [1] turn out when `CCc1cccc(C(=O)NN(C(=O)c2cc(C)cc(C)c2)C(C)(C)C)c1C` [RG-101691, 3,5-Dimethyl-benzoic acid N-tert-butyl-N′-(3-ethyl-2-methyl-benzoyl)-hydrazide] was run?
Its EC50 is 1.06 µM.

What about the Emax [1] of the same compound?
Its Emax is 80%.

And the EC50 [2]?
The EC50 was 0.65 µM.

What about the Emax [2] of the same compound?
The Emax was 91%.

And the EC50 [3]?
The EC50 was 0.66 µM.

What about the Emax [3] of the same compound?
The Emax was 77%.

And the EC50 [4]?
The EC50 was > 33 µM.

And the Emax [4]?
Its Emax is 30%.

What about the EC50 [5] of the same compound?
Its EC50 is 0.67 µM.

What about the Emax [5] of the same compound?
The Emax was 89%.

And the EC50 [6]?
The EC50 was 0.21 µM.

And the Emax [6]?
Its Emax is 74%.

What about the EC50 [7] of the same compound?
The EC50 was 2.34 µM.

What about the Emax [7] of the same compound?
The Emax was 68%.

What about the EC50 [8] of the same compound?
The EC50 was > 33 µM.

What about the Emax [8] of the same compound?
Its Emax is 0%.

And the EC50 [9]?
The EC50 was ~7 µM.

What about the Emax [9] of the same compound?
Its Emax is 57%.

What about the EC50 [10] of the same compound?
The EC50 was 2.28 µM.

And the Emax [10]?
The Emax was 88%.

What about the EC50 [11] of the same compound?
Its EC50 is ~10 µM.

And the Emax [11]?
The Emax was 1%.

What about the EC50 [12] of the same compound?
Its EC50 is 0.03 µM.

What about the Emax [12] of the same compound?
The Emax was 71%.

And the EC50 [13]?
The EC50 was 0.85 µM.

And the Emax [13]?
Its Emax is 103%.

And the EC50 [14]?
Its EC50 is 3.9 µM.

And the Emax [14]?
Its Emax is 96%.

And the EC50 [15]?
Its EC50 is 1.79 µM.

And the Emax [15]?
The Emax was 77%.

And the EC50 [16]?
Its EC50 is > 33 µM.

What about the Emax [16] of the same compound?
The Emax was 525%.

What about the EC50 [17] of the same compound?
The EC50 was 0.3 µM.

And the Emax [17]?
Its Emax is 81%.

What about the EC50 [18] of the same compound?
The EC50 was 9.76 µM.

And the Emax [18]?
The Emax was 89%.

And the EC50 [19]?
Its EC50 is 0.98 µM.

What about the Emax [19] of the same compound?
Its Emax is 53%.

And the EC50 [20]?
Its EC50 is ≥ 33 µM.

What about the Emax [20] of the same compound?
The Emax was 62%.

What about the EC50 [21] of the same compound?
The EC50 was 1.63 µM.

And the Emax [21]?
The Emax was 75%.

Which results are given for `CCc1c(OC)cccc1C(=O)NN(C(=O)c1cc(C)cc(C)c1)C(C)(C)C` [RG-102240, N-(2-ethyl-3-methoxybenzoyl)-N′-(3,5-dimethylbenzoyl)-N′-tert-butylhydrazine]?
EC50 [1]: 1.37 µM; Emax [1]: 100%; maximal fold induction [1, 22]: 5210; Concentration (mM) at max FI ([1]; mutant A110W, GS-E ligand): 10.00 mM; EC50 [2]: ~0.4 µM; Emax [2]: 100%; maximal fold induction [2, 22]: 4810; Concentration (mM) at max FI ([2]; mutant W238P, GS-E ligand): 10 mM; EC50 [3]: 2.32 µM; Emax [3]: 100%; maximal fold induction [3, 22]: 2130; Concentration (mM) at max FI ([3]; mutant L132V, GS-E ligand): 0.01 mM; EC50 [4]: ~13 µM; Emax [4]: 100%; maximal fold induction [4, 22]: 11; Concentration (mM) at max FI ([4]; mutant W238Y, GS-E ligand): 0.0333 mM; EC50 [5]: 0.55 µM; Emax [5]: 100%; maximal fold induction [5, 22]: 2290; EC50 [6]: ~0.5 µM; Emax [6]: 100%; maximal fold induction [6, 22]: 1130; Concentration (mM) at max FI ([6]; mutant T52L, GS-E ligand): 33.3 mM; EC50 [7]: ~2 µM; Emax [7]: 100%; maximal fold induction [7, 22]: 20; Concentration (mM) at max FI ([7]; mutant F109L, GS-E ligand): 33.30 mM; EC50 [8]: ~10 µM; Emax [8]: 100%; maximal fold induction [8, 22]: 2250; Concentration (mM) at max FI ([8]; mutant M125L, GS-E ligand): 0.0333 mM; EC50 [9]: ~7 µM; Emax [9]: 100%; maximal fold induction [9, 22]: 1540; Concentration (mM) at max FI ([9]; mutant T52E, GS-E ligand): 33.3 mM; EC50 [10]: 3.2 µM; Emax [10]: 100%; maximal fold induction [10, 22]: 2480; Concentration (mM) at max FI ([10]; mutant I51L, GS-E ligand): 33.30 mM; EC50 [11]: 3.7 µM; Emax [11]: 0%; maximal fold induction [11, 22]: 2410; Concentration (mM) at max FI ([11]; mutant M125R, GS-E ligand): 33.3 mM; EC50 [12]: 0.08 µM; Emax [12]: 100%; maximal fold induction [12, 22]: 4460; Concentration (mM) at max FI ([12]; mutant M54T, GS-E ligand): 10.00 mM; EC50 [13]: 0.59 µM; Emax [13]: 100%; maximal fold induction [13, 22]: 4930; Concentration (mM) at max FI ([13]; mutant A110E, GS-E ligand): 10.00 mM; EC50 [14]: 1.58 µM; Emax [14]: 100%; maximal fold induction [14, 22]: 3410; Concentration (mM) at max FI ([14]; mutant R95H, GS-E ligand): 33.30 mM; EC50 [15]: 1.43 µM; Emax [15]: 100%; maximal fold induction [15, 22]: 4580; Concentration (mM) at max FI ([15]; mutant L234M, GS-E ligand): 33.30 mM; EC50 [16]: > 33 µM; Emax [16]: 100%; maximal fold induction [16, 22]: 1; Concentration (mM) at max FI ([16]; mutant M125P, GS-E ligand): 0.0333 mM; EC50 [17]: 0.46 µM; Emax [17]: 100%; maximal fold induction [17, 22]: 2600; Concentration (mM) at max FI ([17]; mutant F48L, GS-E ligand): 0.0333 mM; EC50 [18]: 4.21 µM; Emax [18]: 100%; maximal fold induction [18, 22]: 1890; EC50 [19]: ~2 µM; Emax [19]: 100%; maximal fold induction [19, 22]: 1200; Concentration at max FI ([19]; mutant M125E, GS-E ligand): 33.3 mM; EC50 [20]: ~8 µM and > 33 µM; Emax [20]: 100%; maximal fold induction [20, 22]: 9; Concentration (mM) at max FI ([20]; mutant M125C, GS-E ligand): 33.3 mM; EC50 [21]: 1.17 µM; Emax [21]: 100%; maximal fold induction [21, 22]: 1680; Concentration (mM) at max FI ([21]; mutant M54W, GS-E ligand): 0.01 mM

Reference: patent US9163256B2, “Mutant receptors and their use in a nuclear receptor-based inducible gene expression system” (priority 2004, dated 2015)
